One molecule from patent US5563176A (priority 1994, dated 1996) can be followed below.

The subject of data set [1] is MDA-231 parent (Breast) cells. Briefly: sensitivity of mdr lines, MDA-231 parent. Type of data set: cell-based. The conditions noted are these: Homo sapiens, MDA-MB-231.
For data set [2], the system named is SL-2 leukemia/lymphoma cells. Kind of data set: SL-2 syngeneic model, increased life span. Type of data set: in vivo, murine. As to the method: The efficacy of dehydroilludin M was then screened in a syngeneic model using murine SL-2 cells. SL-2 leukemia/lymphoma cells are injected subcutaneously and metastasized to lymph nodes, spleen, and lungs, and drug efficacy in this model is determined by increased life span (ILS). The SL-2 cells were administered at 2.5 million cells per animal and treatment was delayed. for 7 days until the tumors were palpable. Ibis is a relatively stringent test .against established tumors and contrasts to general drug screens in the SL-2 model which normally use only 0.5 million cells and starting drug treatment at 3 days. […] When administered IV at 0.03 mg/kg, twice a week, the ILS increased to 38%.

A short description of data set [3]: kinetics of the reaction with dilute HCl. Type of data set: physicochemical. The conditions noted are these: dehydroilludin M. From the text: Consistent with the above hypothesis are the results of the kinetics of the reaction of illudin M and dehydroilludin M with dilute HCl. […] In the reaction with dehydroilludin M, no intermediate could be detected by NMR spectroscopy. Presumably it formed too slowly and is too short-lived to be detected.

The subject of data set [4] is CFU-GM. Briefly: colony formation zone size, CFU-GM. Particulars: for Zone Size: CFU-GM.

By IC50 is commonly meant the concentration at which inhibition is half-maximal. A word on the ILS: it is how much longer treated animals lived than controls. Read a high ILS as much gain in survival. By half-life is commonly meant the time needed for the level to fall by half in the phase considered.

With `CC1=C2C(=O)C(C)(C)C=C2C(=O)[C@](C)(O)C12CC2` [Dehydroilludin M], the IC50 in data set [1] is 54 ± 7 nM. Also, the results for the ILS in data set [2] (0.03 mg/kg IV twice a week), in data set [2] (30 mg/kg IP twice a week) and in data set [2] (60 mg/kg IP twice a week) were 38%, 5% and 18%, respectively. The half-life in data set [3] was 46.1 h. Further, the “k, first-order reaction” value in data set [3] was 2×10^-4 min^1. Moreover, the “Zone Size” value in data set [4] (dilution 1/25) was 200; in data set [4] (dilution 1/125) it was 100; in data set [4] (dilution 1/125 (repeat)), 50; in data set [4] (dilution 1/625) it was 0. Moreover, the “effect on CFU-gm cells” value in data set [4] (at concentrations inhibiting AML colony formation) is given as “no effect”.
